Experimental findings from ChEMBL document CHEMBL1201862, “PubChem BioAssay data set” (2004) are described below.

Holding throughout (assay): NCI-60 cell line screen, 48 h
In experiment [1] the test system is SW-620.
Experiment [2] deals with Malme-3M.
Experiment [3] relates to TK-10.
Experiment [4] has as its system UACC-62.
Experiment [5] has as its system CCRF-CEM.
Experiment [6] deals with HCC 2998.
The subject of experiment [7] is A498.
Experiment [8] relates to OVCAR-3.
For experiment [9], the system named is HT-29.
Experiment [10] concerns COLO 205.
Experiment [11] relates to HOP-92.
The test system of experiment [12] is IGROV-1.
The test system of experiment [13] is HCT-116.
Experiment [14] relates to LOX IMVI.
In experiment [15] the test system is SK-MEL-2.

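In this assay, cells in 96-well plates receive the compound at five concentrations for 48 hours. Endpoints are linearly interpolated between the surrounding concentrations. GI50 = concentration required for 50% inhibition of growth.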 The source made the active and inactive calls. Cut-off read from the data, not from the text of the source: active = GI50 up to about 1.1 µM and inactive = higher.

As for `COc1ccc(OC2(c3cc(OC)ccc3OC)OC(=O)c3ccccc32)cc1` (stereo not drawn), the GI50 in experiment [1], in [2], in [3], in experiment [4], in experiment [5] and in [6] was > 100 µM (inactive) throughout. The GI50 in [7], in experiment [8], in experiment [9], in experiment [10], in [11] and in experiment [12] was > 100 µM (inactive) throughout. For the same compound, the GI50 in experiment [13], in experiment [14] and in [15] was > 100 µM (inactive) in each case.
Turning to `CCCCCCCCCCCCCC(=O)OC1C(CO)OC(=O)C1O` (stereo not drawn), the GI50 in experiment [1] was > 100 µM (inactive); in experiment [2], > 100 µM (inactive); in [3], > 100 µM (inactive); in [4] it was > 100 µM (inactive); in experiment [5], 89.9 µM (inactive); in experiment [6], > 100 µM (inactive). For the same compound, the GI50 was > 100 µM (inactive) in experiment [7]; > 100 µM (inactive) in experiment [8]; > 100 µM (inactive) in experiment [9]; > 100 µM (inactive) in [10]; 26.7 µM (inactive) in experiment [11]; > 100 µM (inactive) in experiment [12]. The GI50 in [13], in [14] and in experiment [15] was > 100 µM (inactive) each time.
In the case of `COc1cc([C@H]2c3cc4c(cc3[C@H](NCc3ccc([N+](=O)[O-])cc3)C3COC(=O)[C@H]32)OCO4)cc(OC)c1O` (stereo partly drawn), the GI50 in experiment [1] was 1.03 µM (active); in experiment [2], 1.56 µM (inactive); in [3], 1.96 µM (inactive); in experiment [4], 1.07 µM (active); in experiment [5], 0.251 µM (active); in experiment [6] it was 1.23 µM (inactive). Also, the GI50 in experiment [7] was 0.378 µM (active); in [8], 3.08 µM (inactive); in experiment [9], 2.17 µM (inactive); in [10], 2.52 µM (inactive); in [11] it was 2.81 µM (inactive); in experiment [12] it was 12.3 µM (inactive). The GI50 in experiment [13] is 2.36 µM (inactive); in experiment [14], 0.92 µM (active); in [15], 4.38 µM (inactive).
Regarding `COc1cc2c(cc1O)CN1CCC23C=C[C@@H](O)CC13` (stereo partly drawn), the GI50 in [1] was 59.6 µM (inactive); in experiment [2], > 100 µM (inactive); in experiment [3], > 100 µM (inactive); in experiment [4], > 100 µM (inactive); in experiment [5], 28.2 µM (inactive); in experiment [6], 56.9 µM (inactive). In addition, the GI50 was > 100 µM (inactive) in [7]; > 100 µM (inactive) in experiment [8]; 47.5 µM (inactive) in experiment [9]; 27.7 µM (inactive) in experiment [10]; > 100 µM (inactive) in experiment [11]; 88.3 µM (inactive) in experiment [12]. Moreover, the GI50 in [13] was 34.1 µM (inactive); in experiment [14], 46.6 µM (inactive); in experiment [15], 44.8 µM (inactive).
With `O=[N+]([O-])c1ccc2nc(/C(=N/Nc3ccccc3)C(O)c3ccc(Cl)cc3Cl)c(O)nc2c1` (stereo not drawn), the GI50 in experiment [2] is > 100 µM (inactive); in experiment [3], > 100 µM (inactive); in experiment [4], 48.5 µM (inactive); in experiment [5], 22.3 µM (inactive); in experiment [6], > 100 µM (inactive); in experiment [7], > 100 µM (inactive). Also, the GI50 in experiment [8] was > 100 µM (inactive); in experiment [9] it was > 100 µM (inactive); in [10], 38.9 µM (inactive); in experiment [11] it was > 100 µM (inactive); in experiment [12], > 100 µM (inactive); in [13], > 100 µM (inactive). Further, the GI50 in experiment [14] and in experiment [15] was > 100 µM (inactive) each time.
As to `O=C(O)C1=C(C(=O)Nc2ccc(NC(=O)C3=C(C(=O)O)C4C=CC3C4)cc2)C2C=CC1C2`, the GI50 in experiment [1], in experiment [2], in [3], in experiment [4], in experiment [5] and in experiment [6] was > 100 µM (inactive) throughout. The GI50 in experiment [7], in experiment [8], in [9], in experiment [10], in [11] and in experiment [12] was > 100 µM (inactive) each time. Also, the GI50 in experiment [13] is > 100 µM (inactive); in experiment [14] it was > 100 µM (inactive); in experiment [15] it was 69.7 µM (inactive).
Consider `Cc1ccc(NC(=O)CC2C(=O)Nc3ccccc3[S+]2[O-])c(C)c1` (stereo not drawn), for which the GI50 is 5.81 µM (inactive) in experiment [1]; 18.4 µM (inactive) in experiment [2]; 22.4 µM (inactive) in experiment [3]; 7.23 µM (inactive) in experiment [4]; 11.5 µM (inactive) in experiment [5]; 20 µM (inactive) in experiment [6]. Also, the GI50 in experiment [7] is 18.9 µM (inactive); in [8], 9.51 µM (inactive); in experiment [9] it was 4.35 µM (inactive); in experiment [10] it was 7.52 µM (inactive); in experiment [11], 13.9 µM (inactive); in experiment [12] it was 12.8 µM (inactive). Also, the GI50 is 8.69 µM (inactive) in [13], 16.4 µM (inactive) in experiment [14] and 9.35 µM (inactive) in experiment [15].
`CCCCOC(=O)NC(=O)c1cn(C2CCCCC2)c(=O)[nH]c1=O`: the GI50 was > 100 µM (inactive) in [1]; 31 µM (inactive) in [2]; 46.9 µM (inactive) in [3]; 47.2 µM (inactive) in experiment [4]; > 100 µM (inactive) in [5]; > 100 µM (inactive) in experiment [6]. Besides, the GI50 in [7] was 17.1 µM (inactive); in experiment [8] it was 40.6 µM (inactive); in experiment [9], 59.4 µM (inactive); in experiment [10], > 100 µM (inactive); in experiment [11], 14.3 µM (inactive); in [12], 39.2 µM (inactive). Further, the figures for the GI50 in experiment [13], in experiment [14] and in experiment [15] were 21.5 µM (inactive), 55.2 µM (inactive) and 38 µM (inactive), respectively.
In the case of `COc1cc(C2c3cc4c(cc3[C@@H](OCCN)[C@H]3COC(=O)C23)OCO4)cc(OC)c1O` (stereo partly drawn), the GI50 is 0.179 µM (active) in experiment [1]; 0.136 µM (active) in experiment [2]; 2.14 µM (inactive) in [3]; 0.0843 µM (active) in [4]; 0.0316 µM (active) in experiment [5]; 0.671 µM (active) in experiment [6]. Also, the GI50 in experiment [7] was 0.212 µM (active); in experiment [8], 1.27 µM (inactive); in experiment [9], 0.7 µM (active); in experiment [10], 1.7 µM (inactive); in experiment [11], 0.082 µM (active); in experiment [12], 1.15 µM (inactive). In addition, the results for the GI50 in [13], in experiment [14] and in experiment [15] were 0.995 µM (active), 0.0434 µM (active) and 0.322 µM (active), respectively.
On to `CCOC(OC1=C(C#N)CCCC1)C(C)[Se]c1ccccc1` (stereo not drawn), for which the GI50 in experiment [2] is 55.3 µM (inactive); in [3] it was > 100 µM (inactive); in [4], 19.2 µM (inactive); in experiment [5], 21.7 µM (inactive); in experiment [6], > 100 µM (inactive); in experiment [7], > 100 µM (inactive). Besides, the GI50 in experiment [8] is 31.6 µM (inactive); in experiment [9], 52.6 µM (inactive); in [10], 39.7 µM (inactive); in experiment [11], 31.6 µM (inactive); in experiment [12] it was 29.2 µM (inactive); in [13] it was 30.1 µM (inactive). The figures for the GI50 in experiment [14] and in [15] were 16 µM (inactive) and > 100 µM (inactive), respectively.
